Entries after “also recorded” stand apart in the source; their conditions may differ.
Experiments:
HK853 [1] = target: T1, HK853 (Thermotoga maritima, UniProt Q9WZV7); experiment: HK853 aggregation analysis (native-PAGE); details: for Compound-induced HK853 aggregation: native-PAGE, Fig. S3
Protocol: HK853 Aggregation Analysis
To analyze the propensity for compounds to cause aggregation, each was mixed at six […]
(5% (v/v) DMSO final). After incubating at RT for 30 min, 8.6 µL native-PAGE sample loading buffer was added, and 15 µL was loaded onto a 7.5% polyacrylamide gel. Proteins were resolved by native-PAGE and silver staining. Compound-induced aggregation was detected by the disappearance of the dimeric HK853 band. NH125 (Tocris Bioscience) was used as a positive […]

P. aeruginosa PA14 [2] = experiment: Growth of PA14 cultures with inhibitors (OD620, CFU); type: cell-based, Pseudomonas aeruginosa; details: for Bacteriostatic and bactericidal properties in PA14 cultures: OD620 measurements and CFU studies, even at high concentrations (500 μM); for t = 9 h, OD620 / t = 24 h, OD620: Table S3, PA14 cultures for metabolomics, 200 µM, 37 °C
Protocol: The overnight culture was diluted 1:100 in fresh LB media. 4 mL of this culture was then put
into a 15 mL borosilicate glass tube, to which Rilu-inhibitors in DMSO were added to a final
concentration of 200 µM and 500 µM (for the control experiments, the same amount of DMSO
was added). These cultures were grown for 24 h at 37 ° C and 200 RPM, and their OD620 values
were measured using a spectrophotometer at various time points.
200 µM and 500 µM after 16 h at 37 °C.

P. aeruginosa PA14 [3] = experiment: Swarming assay; type: cell-based, Pseudomonas aeruginosa; details: 200 μM; for Swarming motility: after 5 days
Protocol: (§1) Swarming assays and quantification of rhamnolipids in swarm-plates
(§2) We followed the revised protocol developed by Trembley et al. for P. aeruginosa swarm assays.6 Plates consisted of modified M9 medium [20 mM NH4Cl; 12 mM Na2HPO4; 22 mM KH2PO4; 8.6 mM NaCl; 1 mM MgSO4; 1 mM CaCl2•2H2O; 11 mM dextrose; 0.5% casamino acids (Difco)] solidified with Bacto-agar (Difco). The M9 media without MgSO4 and CaCl2•2H2O was autoclaved, which were added after cooling the media ~60 °C. The pH was adjusted after autoclaving with HCl and NaOH (pH = 7.5). Then, a 1-in-100 dilution of filter-sterile stock containing 1 mg/mL Nile red (Sigma Aldrich) dissolved in 85% ethylene glycol and added (prepared the day of use to limit photoinactivation).7 Twenty mL of this media was poured into […]
(for the control experiments, same amount of DMSO was added). Plates were allowed to dry for 60 min, with the first 20 min under UV light to ensure plates were sterile following pH adjustment. P. aeruginosa PA14 strain was grown overnight (~16 h) in LB media at 37 °C and 200 RPM. Five µl of bacteria were spotted at the center of each plate, which were incubated at 30 °C in the dark and ~20% humidity. The plates were intermittently taken out for fluorescence scanning [scan settings: GE Typhoon Variable Mode Imager 9500, using 532-nm laser with DY-520XL (λex: 520 nm, λem: 664 nm)]. The scans were visualized and integrated density measurements of whole-plate fluorescence was measured using ImageJ software. Images of these plates were also taken with a Nikon D5200 DSLR camera, which were processed in Adobe Photoshop Lightroom 5 (Mac version) for phase-contrast.
Figure S9. Swarming motility of PA14 in the presence of Rilu-inhibitors at 200 µM after 5 days.
(§3) The top images are fluorescence scans for detecting Nile Red and the bottom images were taken

P. aeruginosa PA14 [4] = experiment: LC-MS/MS analyses of metabolites in PA14 culture supernatant; type: cell-based, Pseudomonas aeruginosa; details: 200 μM, 9 h, 37 °C, relative to DMSO control
Protocol: LC-MS analyses of metabolites
The overnight culture was diluted 1:100 in fresh LB media. 4 mL of this culture was added into a 15 mL borosilicate glass tube, to which Rilu-inhibitors in DMSO were added to a final concentration of 200 µM (for the control experiments, same amount of DMSO was added).
These cultures were grown for 9 h (late exponential phase) or 24 h (stationary phase) at 37 °C and 200 RPM. The OD620 values were measured using a spectrophotometer. 1 mL of each culture was placed in a 1.7 mL Eppendorf tube, centrifuged at 5,000 g for 5 min and the supernatant was removed from the cell pellets. The supernatants were directly analyzed on an ESI-LC-MS/MS instrument for metabolites and the cell pellets (from 9 h cultures) were further used for RNA extraction in q-PCR experiments.
Injections of 2 µ L were separated on Zorbax Eclipse plus C18 column (2.1 mm x 50
MeOH:5% water with 0.1% formic acid). The metabolites were separated using an isocratic elution of 100% for 0-3 min, then a 3-17 min linear gradient to 100% B, and 17-20 min of 100% B at a constant flow rate of 0.4 ml/min. Samples were measured in positive ion mode and data was collected in triplicate. Data were analyzed using the Agilent MassHunter Quantitative Analysis suite. From the extracted ion chromatograms (EICs) of the respective metabolite signals, the peak areas were normalized to the OD620 growth values of the respective cultures. All of the peak areas of the treated samples were plotted by considering the DMSO-control sample to be 100% abundance.

P. aeruginosa PA14 [5] = experiment: Biofilm assay (microtitre, crystal violet); type: cell-based, Pseudomonas aeruginosa; details: high concentrations, PA14, 24 h, relative to DMSO control
Protocol: (§4) P. aeruginosa PA14 strain was grown overnight (~16 h) in LB media at 37 °C and 200 RPM.
The overnight culture was diluted 1:100 in fresh LB media. 200 µL of this culture was then used to inoculate each well of a microtiter plate, to which Rilu-inhibitors were added in DMSO to final concentration of 200 µM or 500 µM (for the control experiments, same amount of DMSO was added). Eight wells per plate were used for each sample. These cultures were grown for 24 h at 37 °C without shaking. After growth, the planktonic cultures were carefully removed to a new microtitre plate to measure the OD620 values. The adhered cells were washed carefully three times with sterile PBS buffer, and then the cells were fixed with MeOH for 20 min. After removing the MeOH, the wells were allowed to dry for 10 min, followed by addition of 0.1% crystal violet. After 15 min of incubation, the stain was carefully removed without touching the rest of the plate. The excess stain was washed away 3 times from the wells with distilled water and the plate was allowed to dry for ~1 h. Finally, the adhered stain was redissolved in 30% acetic acid solution (for 1 h) and absorbance was measured at 595 nm. Assays were repeated in […]
Figure S8. (a) Different stages of biofilm formation. (b) Biofilm formation assessment. All values are plotted relative to a DMSO-treated control and normalized to the final cell density (OD620). […]

Vero cells = system: Vero cells; parameters: method as in PMID 25531939; details: at <180 μM; cited from earlier work
P. aeruginosa PA14 [6] = experiment: RT-qPCR of virulence and TCS genes in PA14; type: cell-based, Pseudomonas aeruginosa; details: PA14, 9 h, 200 and 500 μM
Protocol: RNA isolation, Reverse Transcriptase -qPCR experiments
as §4
The overnight culture was diluted 1:100 in fresh LB media. Four mL of this culture was then taken in a 15 mL borosilicate glass tube, to which Rilu-inhibitors in DMSO were added to a final concentration of 200 µM or 500 µM (for the control experiments, same amount of DMSO was added). These cultures were then grown for 9 h (late exponential phase) at 37 °C and 200 RPM, OD620 ~0.7. Total RNA was extracted from ~2 mL cell pellet using an RNAEasy Mini kit (Qiagen), according to the manufacturer’s instructions, including exogenous DNase treatment with Ambion Turbo-DNAse Kits. RNA integrity was confirmed by native gel electrophoresis and the quantities were measured using a nanophotometer. cDNA was generated using the DNA-free total RNA using (Applied Biosystems High Capacity cDNA Reverse Transcription Kits) random-primed reverse transcriptase reaction following the manufacturer’s protocol. The cDNA was used as template for quantitative PCR (BioRad MyiQ2 dual-color system) using the SYBR Green detection system (BioRad) on white 96-well PCR plates. Melt curves were obtained for every run, and any wells with multiple peaks were excluded from analysis. Signal was standardized to 2 housekeeping genes, recA, rpoD using the ∆∆C method equation:8 Relative […]
expression = 2(CT standard −C T sample), where CT (cycle time) was determined automatically by the Real Time iQ5 PCR software (BioRad). Primers (Integrated DNA Technologies) for RT-qPCR were designed using NCBI Primer-Blast software. Criteria for primer design were a […]
; primer size = 18 –22 bp; product size = 80–130 bp; product Tm
= 60– 90 °C. Samples were assayed in triplicate and statistical analyses was done with one-way ANOVA (Origin 9.1 software).
Table S5. List of primer pairs used in qPCR
Target gene Forward Reverse […]

HK853 [7] = target: T1, HK853; experiment: Inhibition of HK853 activity (BODIPY-ATPγS competition, HK autophosphorylation); type: biochemical; details: for IC50 values for HK853 inhibitory activity: Fig. 1b and text, HK autophosphorylation; for IC50 values (µM) (95% confidence interval), n = 2: Table S1, HK853 inhibition
Protocol: Inhibition of HK853 Activity
Triton X-100 was premixed with reaction buffer to yield 0.1% (v/v) in final
25-µL reactions. In reaction buffer, 1 µM HK853 was preincubated with test compounds (final
1 µL BODIPY -ATPγS was added to bring
competitors and 5% DMSO. Samples were mixed and incubated in the dark at RT for 1 h before
quenching with 8.6 µL 4× SDS-PAGE sample loading buffer and loading 15 µL on a 10%
stacking gel. After SDS-PAGE, in-gel fluorescence detection elucidated HK853 activity, and
coomassie staining of the gels ensured even protein loading. Integrated density values of the
fluorescent gel bands were normalized as “% Activity” with respect to a control that contained
no inhibitor. Data were plotted in GraphPad Prism with relation to the log of molar inhibitor to
(control FP competition and activity assays), data were fit to a four-parameter logistic equation,
where y is the response, Bottom and Top are plateaus in the units of the y-axis, x is the log of the
molar concentration of inhibitor, HillSlope is the slope of the curve, and IC50 is the concentration
As a result, IC50 values were estimated by constraining the bottom of the curve to

P. aeruginosa PA14 [8] = experiment: Rapid attachment assay; type: cell-based, Pseudomonas aeruginosa; details: PA14, 60 min adhesion, relative to DMSO control
Protocol: as §4
The overnight cultures were washed and diluted in LB medium to an OD620 value of 1.0. 100 µL of this suspension was used to inoculate each well of a microtiter plate in presence of Rilu-inhibitors in DMSO at 200 µM or 500 µM (for the control experiments, same amount of DMSO was added). Eight wells per plate were used for each sample. Cells were allowed to adhere for 60 min at 37 °C and 200 RPM. After the planktonic cells were removed, staining with crystal violet was carried out, as described in the biofilm assay procedure. Assays were repeated in triplicate.

P. aeruginosa PA14 [9] = experiment: Quantification of rhamnolipids in swarm-plates (Nile red, ImageJ); type: cell-based, Pseudomonas aeruginosa; details: 200 μM, Nile red fluorescence, quantified with ImageJ
Protocol: as §1, §2
(for the control experiments, same amount of DMSO was added). Plates were allowed to dry for 60 min, with the first 20 min under UV light to ensure plates were sterile following pH adjustment. […] The plates were intermittently taken out for fluorescence scanning [scan settings: GE Typhoon Variable Mode Imager 9500, using 532-nm laser with DY-520XL (λex: 520 nm, λem: 664 nm)]. The scans were visualized and integrated density measurements of whole-plate fluorescence was measured using ImageJ software. […]
as §3

T1 sequence (Q9WZV7 entry or part of it): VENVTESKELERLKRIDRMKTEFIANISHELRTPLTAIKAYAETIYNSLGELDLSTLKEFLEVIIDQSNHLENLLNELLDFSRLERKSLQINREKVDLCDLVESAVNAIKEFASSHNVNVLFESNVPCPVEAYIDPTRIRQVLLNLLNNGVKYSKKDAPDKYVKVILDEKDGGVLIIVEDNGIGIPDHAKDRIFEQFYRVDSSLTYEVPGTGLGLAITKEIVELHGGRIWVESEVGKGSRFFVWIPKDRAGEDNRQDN

SMILES | Bacteriostatic and bactericidal properties in PA14 cultures (P. aeruginosa PA14 [2]) | Swarming motility (P. aeruginosa PA14 [3]) | Compound-induced HK853 aggregation (HK853 [1]) | t = 9 h, OD620 (P. aeruginosa PA14 [2]) | t = 24 h, OD620 (P. aeruginosa PA14 [2]) | Effect on expression of virulence-associated genes (pqsR, fleQ and pilA) (P. aeruginosa PA14 [6]) | other results
CCCCCCCCCCCCCCCCn1cc[n+](Cc2ccccc2)c1C.[I-] [NH-125, reference compound] |  |  |  |  |  |  | Concentration causing disappearance of the protein dimer band (protein aggregation) (HK853 [1]; native-PAGE of HK853, positive aggregation control): ≥ 10 µM
Nc1nc2ccc(OC(F)(F)F)cc2s1 [Rilu-1, riluzole, reference compound] | None of these compounds substantially slowed growth or killed the organism | moderate difference in swarming | non-aggregators |  |  |  | 
Nc1nc2ccc(Oc3ccc4nc(N)sc4c3)cc2s1 [Rilu-2] | None of these compounds substantially slowed growth or killed the organism |  | non-aggregators | 0.851 | 1.60 |  | Reduction of PCN (P. aeruginosa PA14 [4]): ~85%; Reduction of PYO (P. aeruginosa PA14 [4]): 70%; Reduction of biofilm mass (P. aeruginosa PA14 [5]): 25%; Cytotoxicity to Vero cells (Vero cells): not cytotoxic
Nc1nc2ccc([N+](=O)[O-])cc2s1 [Rilu-4] | None of these compounds substantially slowed growth or killed the organism | moderate difference in swarming | non-aggregators | 0.842 | 1.65 | substantially downregulated | 
Cc1nc2ccc(N)cc2s1 [Rilu-7] |  |  |  |  |  | does not significantly affect | 
Nc1nc2c(Cl)cc(Cl)cc2s1 [Rilu-10] |  |  |  |  |  |  | IC50 values for HK853 inhibitory activity (HK853 [7]): No inhibition; also recorded: inactive; IC50 values (µM) (95% confidence interval), n = 2 (HK853 [7]): No Inhibition
Nc1nc2cc(Br)c(Br)cc2s1 [Rilu-11] |  |  |  |  |  |  | IC50 values for HK853 inhibitory activity (HK853 [7]): No inhibition; also recorded: inactive; IC50 values (µM) (95% confidence interval), n = 2 (HK853 [7]): No Inhibition
Nc1nc2cc3sc(N)nc3cc2s1 [Rilu-12] | None of these compounds substantially slowed growth or killed the organism | major impairment in motility | non-aggregators | 0.883 | 1.65 | substantially downregulated | Amount of PCA produced (P. aeruginosa PA14 [4]): ~8%; Reduction in surface attachment (P. aeruginosa PA14 [8]): 70%; Swarming motility, tendril formation (P. aeruginosa PA14 [3]; after 40 h): most prominently; Reduction of RL production on swarm agar plates (P. aeruginosa PA14 [9]): 70%

Source: paper PMC6237130, “Disarming the virulence arsenal of Pseudomonas aeruginosa by blocking two-component system signaling” (Chemical Science, 2018)
